Several values for one entry are separate records, joined by “and”; a condition that tells them apart may be missing. Equal values may be shown once.
What was measured:
[1] = tested on: CDK12KD/CCNKΔC (WT or G731E/R); assay: Nano DSF; format: binding, human; conditions: increasing concentrations of HQ461
Procedure: CDK12KD/CCNKΔC (WT or G731E/R) or DDB1ΔBPB were diluted with DSF assay buffer (50 mM HEPES pH 7.5, 300 mM NaCl, 0.5 mM TCEP) to 3.6 µM and mixed with diluted HQ461 (final DMSO concentration 2%). Tryptophan fluorescence was measured using Tycho NT.6 (NanoTemper, South San Francisco, USA). During the thermal shift experiment, temperature was increased from 35°C to 95°C and fluorescence was scanned at 350 nm and 330 nm. Ti (inflection temperature of the unfolding transition) was calculated from the 350 nm/330 nm ratio.

[2] = tested on: A549 cells; assay: Cell viability assay (CellTiter-Glo), A549; format: cell-based, Homo sapiens; conditions: for CellTiter-Glo (ATP): A549, raw signal, Rep 1-3
Procedure: Seven hundred A549 cells or 1,000 HCT-116 cells in 50 µL of medium were plated per well in 384-well flat clear bottom white polystyrene TC-treated microplates (Corning, Corning, USA). After overnight attachment, cells were dosed with a serial dilution of HQ461 with a D300e digital dispenser (Tecan, Männedorf, Switzerland). Cell survival was measured 72 hr later using CellTiter-Glo luminescent cell viability assay kit (Promega, Madison, USA) following vendor instructions. Luminescence was recorded by EnVison multimode plate reader (PerkinElmer, Waltham, USA). IC50 was determined with GraphPad Prism using baseline correction (by normalizing to DMSO control), the asymmetric (five parameter) equation, and least squares fit.

[3] = biological target: T1, 3xFLAG-CDK12/CCNK and DDB1 (Homo sapiens, UniProt Q9NYV4); assay: Co-immunoprecipitation of CCNK and DDB1 with 3xFLAG-CDK12 complex; format: binding; conditions: A549 3xFLAG-CDK12 knock-in lysates
T1 construct: A549 3xFLAG-CDK12 knock-in cells were detached from plates by scraping; endogenous in cells; host or cells: A549 3xFLAG-CDK12 knock-in cells (lysate)
Procedure: Anti-FLAG M2 antibody (Sigma-Aldrich, MO, USA F3165) was coupled to magnetic epoxy beads (Beijing Yunci Technology Co., Beijing, China) at the ratio of 10 μg of anti-FLAG antibody/mg of beads in the presence of 1 M ammonium acetate and 0.1 M sodium phosphate, pH 7.4 at 37°C overnight. A549 3xFLAG-CDK12 knock-in cells were detached from plates by scraping, washed in DPBS, and then frozen in liquid nitrogen. Frozen cells were pulverized using a mixer mill MM 400 (Retsch, Haan, Germany) with two rounds of 1 min ball milling at 30 Hz. Per experiment, 25 mg of grinded cell powder was solubilized with 250 µL of IP buffer (50 mM HEPES, pH 7.4, 300 mM NaCl, 0.1% Tween-20) supplemented with 1x cOmplete, Mini, EDTA-free protease inhibitor cocktail (Roche, Bazel, Switzerland). The resulting lysates were centrifuged at 15,000 g for 10 min at 4°C. Clarified lysates were supplemented with HQ461 or DMSO and incubated at 4°C for 30 min. Afterwards, 0.2 mg of anti-FLAG-conjugated magnetic beads were mixed with clarified lysates for 15 min on a rotating platform at 4°C, followed by three washes with IP buffer supplemented with HQ461 or DMSO. Bound proteins were eluted from magnetic beads with 1 mg/ml of 3 × FLAG peptide (Sigma-Aldrich, MO, USA F4799) with agitation at 4°C for 30 min. Eluted proteins were subjected to SDS-PAGE and western blotting with anti-FLAG-HRP, anti-CCNK, and anti-DDB1. […]

[4] = biological target: T2, DDB1ΔBPB (Homo sapiens, UniProt Q16531, DEL400-704); assay: Differential Scanning Fluorimetry (DSF), DDB1ΔBPB; format: binding; conditions: 50 µM HQ461
T2 construct: Strep-tag (N); 8xHis (N); made in house; host or cells: Sf9
Procedure: CDK12KD/CCNKΔC (WT or G731E/R) and DDB1ΔBPB were diluted to 5 μM with DSF assay buffer (50 mM HEPES pH 7.5, 300 mM NaCl, 0.5 mM TCEP). 50 µM HQ461 or 10 µM HBx was added to diluted proteins (final DMSO concentration 0.25%). Twenty µL of protein-compound mix was aliquoted per qPCR tube (Labtidebiotech, Shanghai, China, P01-0803E) followed by the addition of 5 µL of 1:400 diluted SYPRO Orange (Sigma-Aldrich, MO, USA, S5692). After incubation on ice for 20 min, fluorescence measurements were performed using a Bio-Rad CFX96 Realtime PCR instrument. During the DSF experiment, the temperature was increased from 10°C to 95°C at an increment of 0.5 °C with equilibration time of 10 s at each temperature prior to measurement. Tm was defined as the temperature corresponding to the maximum value of the first derivative of fluorescence transition.

T1 sequence (Q9NYV4 whole entry): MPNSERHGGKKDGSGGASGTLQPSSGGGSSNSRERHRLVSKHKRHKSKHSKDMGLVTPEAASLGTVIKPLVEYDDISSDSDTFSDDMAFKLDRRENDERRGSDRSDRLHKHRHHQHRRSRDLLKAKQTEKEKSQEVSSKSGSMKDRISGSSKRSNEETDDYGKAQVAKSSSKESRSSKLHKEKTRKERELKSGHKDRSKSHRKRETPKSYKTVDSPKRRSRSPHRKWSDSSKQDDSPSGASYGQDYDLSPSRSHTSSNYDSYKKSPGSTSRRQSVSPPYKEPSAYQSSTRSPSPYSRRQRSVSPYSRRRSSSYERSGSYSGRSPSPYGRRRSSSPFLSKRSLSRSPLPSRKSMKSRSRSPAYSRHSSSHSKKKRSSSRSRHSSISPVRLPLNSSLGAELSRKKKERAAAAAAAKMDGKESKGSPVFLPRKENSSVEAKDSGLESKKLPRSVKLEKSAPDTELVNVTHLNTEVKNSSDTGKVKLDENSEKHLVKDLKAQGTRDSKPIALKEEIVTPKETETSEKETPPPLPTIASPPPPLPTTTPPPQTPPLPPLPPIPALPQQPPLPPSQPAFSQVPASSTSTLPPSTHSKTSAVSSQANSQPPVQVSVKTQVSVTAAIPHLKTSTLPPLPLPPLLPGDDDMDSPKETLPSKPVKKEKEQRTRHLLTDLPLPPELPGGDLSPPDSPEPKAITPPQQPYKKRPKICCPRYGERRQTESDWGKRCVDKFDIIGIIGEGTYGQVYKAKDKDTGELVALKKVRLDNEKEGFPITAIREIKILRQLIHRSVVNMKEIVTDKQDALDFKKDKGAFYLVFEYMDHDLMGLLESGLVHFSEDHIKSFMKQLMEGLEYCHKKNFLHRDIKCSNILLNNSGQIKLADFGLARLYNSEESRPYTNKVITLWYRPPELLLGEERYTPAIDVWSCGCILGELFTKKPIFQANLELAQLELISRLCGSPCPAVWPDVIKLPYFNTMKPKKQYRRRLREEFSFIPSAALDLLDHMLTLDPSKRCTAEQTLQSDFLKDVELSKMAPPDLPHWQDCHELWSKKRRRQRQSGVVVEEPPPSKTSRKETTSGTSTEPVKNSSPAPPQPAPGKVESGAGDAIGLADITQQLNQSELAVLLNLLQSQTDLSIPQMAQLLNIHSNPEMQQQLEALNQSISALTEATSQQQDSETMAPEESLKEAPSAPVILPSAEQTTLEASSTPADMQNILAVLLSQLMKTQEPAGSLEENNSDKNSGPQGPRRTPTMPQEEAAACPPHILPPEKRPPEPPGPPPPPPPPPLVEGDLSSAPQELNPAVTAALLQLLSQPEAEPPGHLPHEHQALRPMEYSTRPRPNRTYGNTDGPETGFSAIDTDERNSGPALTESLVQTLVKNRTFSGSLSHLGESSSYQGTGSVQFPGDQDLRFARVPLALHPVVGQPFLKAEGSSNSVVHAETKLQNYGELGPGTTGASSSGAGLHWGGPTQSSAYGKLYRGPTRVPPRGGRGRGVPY
T1 sequence (O75909 whole entry partner): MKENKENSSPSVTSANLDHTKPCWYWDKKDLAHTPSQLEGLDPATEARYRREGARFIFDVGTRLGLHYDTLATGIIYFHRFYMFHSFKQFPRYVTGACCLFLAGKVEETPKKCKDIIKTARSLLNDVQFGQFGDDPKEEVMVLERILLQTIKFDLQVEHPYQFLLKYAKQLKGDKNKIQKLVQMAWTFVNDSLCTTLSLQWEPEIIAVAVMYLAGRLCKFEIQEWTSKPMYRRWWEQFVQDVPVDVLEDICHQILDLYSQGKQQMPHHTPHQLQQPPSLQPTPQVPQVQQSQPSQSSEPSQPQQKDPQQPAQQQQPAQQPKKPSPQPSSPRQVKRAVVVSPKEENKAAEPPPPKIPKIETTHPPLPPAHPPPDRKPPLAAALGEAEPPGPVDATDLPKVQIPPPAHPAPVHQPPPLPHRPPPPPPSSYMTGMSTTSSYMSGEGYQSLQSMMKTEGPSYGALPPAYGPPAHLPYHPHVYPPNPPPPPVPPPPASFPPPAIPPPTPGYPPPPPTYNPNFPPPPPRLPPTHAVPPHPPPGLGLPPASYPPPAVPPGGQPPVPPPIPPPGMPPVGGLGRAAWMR
T1 sequence (Q16531 2-1140 partner limits assumed): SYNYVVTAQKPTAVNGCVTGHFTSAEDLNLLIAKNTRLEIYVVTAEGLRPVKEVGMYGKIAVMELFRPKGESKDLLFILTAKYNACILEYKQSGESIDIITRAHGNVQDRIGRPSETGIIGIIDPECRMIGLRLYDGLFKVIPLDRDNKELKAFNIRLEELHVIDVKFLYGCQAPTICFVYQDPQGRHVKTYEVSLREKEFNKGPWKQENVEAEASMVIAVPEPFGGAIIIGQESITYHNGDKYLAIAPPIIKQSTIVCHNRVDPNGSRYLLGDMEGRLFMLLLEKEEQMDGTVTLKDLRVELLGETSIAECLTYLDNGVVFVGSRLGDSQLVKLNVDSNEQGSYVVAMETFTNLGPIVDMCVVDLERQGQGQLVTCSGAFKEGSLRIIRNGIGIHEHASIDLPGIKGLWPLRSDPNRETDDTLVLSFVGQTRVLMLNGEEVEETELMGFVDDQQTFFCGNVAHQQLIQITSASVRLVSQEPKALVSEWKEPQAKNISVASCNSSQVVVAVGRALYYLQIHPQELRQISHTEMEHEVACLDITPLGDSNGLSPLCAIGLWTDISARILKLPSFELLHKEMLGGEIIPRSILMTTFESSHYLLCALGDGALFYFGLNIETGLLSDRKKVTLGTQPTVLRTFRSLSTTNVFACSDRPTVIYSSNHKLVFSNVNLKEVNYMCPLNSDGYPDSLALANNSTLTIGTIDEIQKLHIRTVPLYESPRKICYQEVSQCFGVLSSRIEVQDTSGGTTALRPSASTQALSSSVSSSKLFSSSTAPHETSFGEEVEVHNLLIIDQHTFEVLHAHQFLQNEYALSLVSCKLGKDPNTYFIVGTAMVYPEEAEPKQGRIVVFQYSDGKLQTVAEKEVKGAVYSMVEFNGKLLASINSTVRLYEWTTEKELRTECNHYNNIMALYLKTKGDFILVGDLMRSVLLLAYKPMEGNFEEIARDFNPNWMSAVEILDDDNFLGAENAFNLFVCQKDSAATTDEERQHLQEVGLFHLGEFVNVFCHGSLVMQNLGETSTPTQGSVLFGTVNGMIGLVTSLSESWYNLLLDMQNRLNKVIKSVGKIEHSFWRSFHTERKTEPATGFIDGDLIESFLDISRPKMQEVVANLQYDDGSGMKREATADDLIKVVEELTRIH
T2 sequence (Q16531 with tags, fused parts or gaps DEL400-704): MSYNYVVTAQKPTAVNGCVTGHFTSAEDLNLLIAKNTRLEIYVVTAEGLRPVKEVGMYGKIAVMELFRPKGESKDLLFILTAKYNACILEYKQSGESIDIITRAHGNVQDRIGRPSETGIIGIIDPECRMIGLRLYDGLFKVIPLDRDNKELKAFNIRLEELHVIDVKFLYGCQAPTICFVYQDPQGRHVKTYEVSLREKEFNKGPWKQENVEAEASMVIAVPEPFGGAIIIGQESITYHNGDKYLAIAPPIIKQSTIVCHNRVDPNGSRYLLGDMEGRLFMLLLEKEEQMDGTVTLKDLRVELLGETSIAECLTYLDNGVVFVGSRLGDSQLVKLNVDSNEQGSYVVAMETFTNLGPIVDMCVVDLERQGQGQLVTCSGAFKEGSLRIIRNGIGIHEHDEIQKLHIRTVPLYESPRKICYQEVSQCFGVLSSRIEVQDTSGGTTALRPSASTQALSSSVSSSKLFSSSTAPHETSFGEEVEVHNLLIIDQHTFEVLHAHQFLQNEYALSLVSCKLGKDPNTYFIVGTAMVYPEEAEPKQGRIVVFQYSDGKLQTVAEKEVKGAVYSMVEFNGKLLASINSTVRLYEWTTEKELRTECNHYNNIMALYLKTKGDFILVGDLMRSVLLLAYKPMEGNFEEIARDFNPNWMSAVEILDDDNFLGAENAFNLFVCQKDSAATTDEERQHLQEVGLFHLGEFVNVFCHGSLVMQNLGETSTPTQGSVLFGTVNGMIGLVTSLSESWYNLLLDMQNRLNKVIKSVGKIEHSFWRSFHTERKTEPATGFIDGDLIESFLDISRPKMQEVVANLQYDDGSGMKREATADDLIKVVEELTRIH

For Cc1cccc(Nc2nc(CC(=O)Nc3ncc(C)s3)cs2)n1 [HQ461, 2-(2-((6-methylpyridin-2-yl)amino)thiazol-4-yl)-N-(5-methylthiazol-2-yl)acetamide], the “Tm of CDK12KD/CCNKΔC wild type or G731E/R mutants” value [1] was “increased in an HQ461 concentration-dependent manner”, the “CellTiter-Glo (ATP)” value ([2]; HQ461 1.6e-6 M) was 1.74E+06 and 1.39E+06 and 1.50E+06 and the “CellTiter-Glo (ATP)” value ([2]; HQ461 3.12e-6 M) was 360450 and 439670 and 341920. For the same molecule, the “CellTiter-Glo (ATP)” value ([2]; HQ461 6.31e-6 M) was 173530 and 234990 and 251210, the “CellTiter-Glo (ATP)” value ([2]; HQ461 1.25e-5 M) was 146290 and 177880 and 172140 and the “CellTiter-Glo (ATP)” value ([2]; HQ461 2.51e-5 M) was 65570 and 94080 and 92090. The “CellTiter-Glo (ATP)” value ([2]; HQ461 2.00E-07 M) was 4.81E+06 and 4.79E+06 and 4.78E+06, the “CellTiter-Glo (ATP)” value ([2]; HQ461 3.96E-07 M) was 3.92E+06 and 3.86E+06 and 3.80E+06 and the “CellTiter-Glo (ATP)” value ([2]; HQ461 4.80E-08 M) was 4.68E+06 and 4.34E+06 and 4.06E+06. For the same molecule, the “CellTiter-Glo (ATP)” value ([2]; HQ461 7.99E-07 M) was 3.98E+06 and 3.60E+06 and 3.16E+06, the “CellTiter-Glo (ATP)” value ([2]; HQ461 9.99E-08 M) was 3.91E+06 and 3.89E+06 and 3.96E+06 and the IC50 ([2]; Homo sapiens, A549, 72 hr, CellTiter-Glo) was 1300 nM. The “recruitment of DDB1 to CDK12/CCNK (coimmunoprecipitation)” value [3] was “DDB1 was only detected with the CDK12/CCNK complex isolated from lysates treated with HQ461” and the “thermal stability of DDB1ΔBPB” value [4] was “did not change the thermal stability”.

Source: PMC7462607 (eLife, 2020)
